Earlier results as cited in patent publication US20050084547A1, “Natural product based apoptosis inducers” (PhytoMyco Research Corporation, priority 2003, published 2005).

Test system: human leukemia HL-60 cells
Settings: microscopy, flow cytometry, DNA fragmentation assay

With `CC(=O)OC(C1CO1)C(OC(C)=O)C1CO1` (stereo not shown) [DADAG, diacetyldianhydrogalactitol] as the compound, how does the apoptosis induction read?
The apoptosis induction was “induced apoptosis in the HL-60 cells”.
